# According to US11124516B2, “Pyrrolo[1,2-A]pyrimidinyl carboxamide compounds and their use in the treatment of medical disorders” (Bial—Biotech Investments, Inc., priority 2016, dated 2021):
# Target: T1, glucocerebrosidase (Gcase) (Homo sapiens, UniProt P04062)
# T1 sequence (P04062 40-536): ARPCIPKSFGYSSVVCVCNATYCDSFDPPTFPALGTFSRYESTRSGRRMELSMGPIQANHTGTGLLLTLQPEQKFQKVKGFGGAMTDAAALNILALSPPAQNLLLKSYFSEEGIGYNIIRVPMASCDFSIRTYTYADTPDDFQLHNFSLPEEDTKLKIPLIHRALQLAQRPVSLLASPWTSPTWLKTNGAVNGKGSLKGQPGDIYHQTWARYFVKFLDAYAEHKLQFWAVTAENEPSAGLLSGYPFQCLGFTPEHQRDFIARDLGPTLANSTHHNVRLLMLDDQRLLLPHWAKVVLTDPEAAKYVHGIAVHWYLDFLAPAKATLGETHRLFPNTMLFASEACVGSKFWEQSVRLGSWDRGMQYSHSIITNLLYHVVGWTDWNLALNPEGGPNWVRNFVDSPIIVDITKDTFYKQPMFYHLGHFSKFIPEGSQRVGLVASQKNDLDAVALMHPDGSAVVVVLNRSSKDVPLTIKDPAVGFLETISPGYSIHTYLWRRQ
# Assay: Glucocerebrosidase (Gcase) activation assay, 4-methylumbelliferyl-beta-D-glucopyranoside substrate, fluorescence
# Type: biochemical
# Details: 10 nM GCase, 100 nM saposin C; for activation at 0.1 µM / activation at 1 µM: 0.25 h; for activation at 0.1 µM: pH 4.7, test compound at 0.1 μM, read-out: Percent Gcase Activation 0.1 μM Test Compound; for activation at 1 µM: pH 4.7, test compound at 1.0 μM, read-out: Percent Gcase Activation 1 μM Test Compound; for Percent Gcase Activation 0.1 μM Test Compound: test compound at 0.1 μM; for Percent Gcase Activation 0.1 μM Test Compound / Percent Gcase Activation 1 μM Test Compound: pH 4.7; for Percent Gcase Activation 1 μM Test Compound: test compound at 1.0 μM
# Protocol: The ability of exemplary compounds to activate glucocerebrosidase (Gcase) was measured.
# A 484 μL aliquot of a 1.0 mg/mL solution of phosphatidylserine (PS) (Sigma P7769) in chloroform was evaporated under a stream of nitrogen for 1 hour. The lipid film was dissolved over 4 minutes of vigorous vortexing in 40 mL of 176 mM K2HPO4/50 mM citric acid (pH 4.7) containing 7.5 μL of triton X-100, resulting in a mixed micellar preparation with a composition of 0.32 mM triton and 0.37 mol % PS. 4-Methylumbelliferyl-beta-D-glucopyranoside (ACROS-337025000) was dissolved in the micellar solution to a final concentration of 2 mM for use as the reaction substrate.
# Test compounds were diluted to the desired concentrations with dimethylsulfoxide (DMSO) from 10 mM stocks, and 0.41 μL of the DMSO compound mixture was added to 100 μL of micellar solution containing 10 nM GCase and 100 nM saposin C (Enzo ALX-201-262-C050). Pre-incubation was allowed to occur for 30 minutes at room temperature, after which the reaction was initiated by combining 25 μL of substrate solution with 25 μL of compound/GCase/saposin mixture. The reaction proceeded for 15 minutes at room temperature and was stopped by adding 150 μL of 1M glycine, pH 12.5. The endpoint of the reaction was monitored by measuring fluorescence intensity (excitation: 365 nm; emission: 440 nm) on a SpectraMax i3 instrument (Molecular Devices). Test compounds were screened at 1.0 and 0.1 μM final concentration, and subsequent 8-point dose response curves were obtained using 3-fold dilutions from a maximum final concentration of 5 μM.
# For experiments in which the test compound was used at a concentration of 1.0 μM, the symbol “+” indicates less than 30% Gcase activation; the symbol “++” indicates Gcase activation in the range of 30% up to 60%; and the symbol “+++” indicates Gcase activation greater than 60%. For experiments in which the test compound was used at a concentration of 0.1 μM, the symbol “*” indicates less than 10% Gcase activation; the symbol “**” indicates Gcase activation in the range of 10% up to 20%; and the symbol “***” indicates greater than 20% Gcase activation.
Compound,activation at 0.1 µM [%],activation at 1 µM [%],Percent Gcase Activation 0.1 μM Test Compound,Percent Gcase Activation 1 μM Test Compound
COc1ccc(F)cc1C(C)NC(=O)c1ccn2c(C)cc(C)nc12 (stereo not shown) [IV-74],> 20,> 60,,
CCC(NC(=O)c1ccn2c(C)cc(C)nc12)c1ccc(OC)cc1 (stereo not shown) [IV-83],> 20,> 60,,
COc1ccccc1C(C)NC(=O)c1ccn2c(C)cc(C)nc12 (stereo not shown) [IV-60],> 20,> 60,,
Cc1cc(C)n2ccc(C(=O)NC(C)C3Oc4ccccc4C3C)c2n1 (stereo not shown) [IV-87],10 to 20,> 60,,
Cc1cc(C)n2ccc(C(=O)NC(C)C3COc4ccccc4O3)c2n1 (stereo not shown) [IV-36],,,* (less than 10% Gcase activation),+ (less than 30% Gcase activation)
Cc1cc(C)n2ccc(C(=O)NC(C)C3CCCCC3)c2n1 (stereo not shown) [III-67],,,*** (greater than 20% Gcase activation),+++ (Gcase activation greater than 60%)
COCC(C)(NC(=O)c1ccn2c(C)cc(C)nc12)c1ccccc1 (stereo not shown) [III-68],< 10,> 60,,
CCCCO[C@H]1CC[C@H](NC(=O)c2ccn3c(C)cc(C4CCOCC4)nc23)CC1 [III-32],< 10,30 to 60,,
Cc1cc(C)n2ccc(C(=O)NC(C)c3cccc(-n4cccn4)c3)c2n1 (stereo not shown) [IV-75],10 to 20,> 60,,
Cc1cc(C)n2ccc(C(=O)NC(C)c3nnn(-c4ccccc4)n3)c2n1 (stereo not shown) [IV-80],< 10,< 30,,
Cc1cc(C)n2ccc(C(=O)NC(Cc3ccccc3)c3ccccc3)c2n1 (stereo not shown) [IV-81],> 20,> 60,,
Cc1cc(C)n2ccc(C(=O)NC(C)c3ccccc3C)c2n1 (stereo not shown) [IV-63],> 20,> 60,,
Cc1cc(C)n2ccc(C(=O)NC(C)C3COc4ccccc4O3)c2n1 (stereo not shown) [IV-82],< 10,,,+++ (Gcase activation greater than 60%)
Cc1cn2ccc(C(=O)NC(C)(C)C3CC3)c2nc1-c1ccc(F)cc1 [III-50],< 10,> 60,,
Cc1cc(C)n2ccc(C(=O)NC(C)c3nc4ccccc4n3C)c2n1 (stereo not shown) [IV-85],< 10,< 30,,
Cc1cc(C)n2ccc(C(=O)NC(C)c3ccc(-c4cccnc4)cc3)c2n1 (stereo not shown) [IV-43],< 10,30 to 60,,

Compound,activation at 0.1 µM [%],activation at 1 µM [%],Percent Gcase Activation 0.1 μM Test Compound,Percent Gcase Activation 1 μM Test Compound
CCC(NC(=O)c1ccn2c(C)cc(C)nc12)c1ncccc1C (stereo not shown) [IV-57],< 10,< 30,,
COCc1cc(C(F)F)n2ccc(C(=O)NC3(c4cc(F)cc(F)c4)CC3)c2n1 [III-9],< 10,< 30,,
Cc1cc(C)n2ccc(C(=O)NC(C)c3ncc(-c4ccccc4)o3)c2n1 (stereo not shown) [IV-65],10 to 20,> 60,,
Cc1cc(C)n2ccc(C(=O)NC(C)C3CCCC3)c2n1 (stereo not shown) [III-69],10 to 20,> 60,,
Cc1cc(C)n2ccc(C(=O)NC(CO)C34CC5CC(CC(C5)C3)C4)c2n1 (stereo not shown) [IV-34],< 10,30 to 60,,
Cc1cc(C)n2ccc(C(=O)NC(C)c3nc(C4CCCCC4)no3)c2n1 (stereo not shown) [IV-69],10 to 20,> 60,,
Cc1cc(C)n2ccc(C(=O)N[C@H](C)c3ccc4c(c3)OCO4)c2n1 [IV-84],10 to 20,> 60,,
CCC(NC(=O)c1ccn2c(C)cc(C)nc12)C12CC3CC(C1)C(C3)C2 (stereo not shown) [IV-72],> 20,> 60,,
Cc1cc(C)n2ccc(C(=O)NC(C)c3nnn(C4CC4)n3)c2n1 (stereo not shown) [IV-76],< 10,< 30,,
COCC(NC(=O)c1ccn2c(C)cc(C)nc12)C1CC1 (stereo not shown) [III-66],< 10,< 30,,
Cc1cc(-c2ncccn2)nc2c(C(=O)NC(C)(C)C3CC3)ccn12 [III-43],10 to 20,> 60,,
Cc1cc(C)n2ccc(C(=O)NC(C)c3ccc(-c4ccccc4)cc3)c2n1 (stereo not shown) [IV-77],> 20,> 60,,
Cc1cc(C)n2ccc(C(=O)NC(C)c3ccc(-n4cccn4)cc3)c2n1 (stereo not shown) [IV-68],10 to 20,> 60,,
Cc1cc(C)n2ccc(C(=O)NC(C)c3ccccc3-n3cccn3)c2n1 (stereo not shown) [IV-67],< 10,30 to 60,,
Cc1cc(C)n2ccc(C(=O)N[C@@H](C)c3nc4ccccc4n3C)c2n1 [IV-37],< 10,< 30,,
Cc1cc(C)n2ccc(C(=O)NC(C)c3ccccc3-c3ccccc3)c2n1 (stereo not shown) [IV-70],< 10,> 60,,

# Results, then the molecule that gave them:
activation at 0.1 µM [%],activation at 1 µM [%],Percent Gcase Activation 0.1 μM Test Compound,Percent Gcase Activation 1 μM Test Compound,Compound
< 10,< 30,,,Cc1cc(C)n2ccc(C(=O)NC(CO)c3ccc4ccccc4c3)c2n1 (stereo not shown) [IV-90]
> 20,> 60,,,CCOc1ccc(C(C)NC(=O)c2ccn3c(C)cc(C)nc23)cc1 (stereo not shown) [IV-88]
< 10,30 to 60,,,Cc1cc(C)n2ccc(C(=O)NC(CO)c3cccc4ccccc34)c2n1 (stereo not shown) [IV-94]
> 20,> 60,,,Cc1cc(C)n2ccc(C(=O)NC(C)c3ccc(C)c(F)c3)c2n1 (stereo not shown) [IV-104]
> 20,> 60,,,Cc1cc(C)n2ccc(C(=O)NC(C)C34CC5CC(C3)C(C5)C4)c2n1 (stereo not shown) [IV-89]
> 20,> 60,,,Cc1cc(C)n2ccc(C(=O)NC(C)(C)c3ccc(F)cc3)c2n1 [IV-103]
10 to 20,> 60,,,CCc1ccc([C@@H](C)NC(=O)c2ccn3c(C)cc(C)nc23)cc1 [IV-100]
> 20,> 60,,,CCC(=O)Nc1ccc(C(C)NC(=O)c2ccn3c(C)cc(C)nc23)cc1 (stereo not shown) [IV-98]
10 to 20,> 60,,,Cc1cc(C)n2ccc(C(=O)NC(C)c3ccc(F)c(C)c3)c2n1 (stereo not shown) [IV-107]
< 10,30 to 60,,,CCC(CO)(NC(=O)c1ccn2c(C)cc(C)nc12)c1ccccc1 (stereo not shown) [IV-101]
> 20,> 60,,,CCC(NC(=O)c1ccn2c(C)cc(C)nc12)c1cccc(Cl)c1 (stereo not shown) [IV-105]
> 20,> 60,,,Cc1cc(C)n2ccc(C(=O)N[C@@H](C)c3cccc4c3CCCC4)c2n1 [IV-99]
10 to 20,> 60,,,Cc1cc(C)n2ccc(C(=O)N[C@H](C)c3ccc(F)cc3)c2n1 [IV-97]
< 10,< 30,,,Cc1cc(C)n2ccc(C(=O)NC(CO)c3cccc(C)c3C)c2n1 (stereo not shown) [IV-92]
10 to 20,> 60,,,Cc1cc(C)n2ccc(C(=O)NC(C)c3ccccc3F)c2n1 (stereo not shown) [IV-108]
< 10,> 60,,,Cc1cc(C)n2ccc(C(=O)NC(C)c3cccc(N4CCCC4)c3)c2n1 (stereo not shown) [IV-102]
> 20,> 60,,,Cc1cc(C)n2ccc(C(=O)NC(C)(C)c3cccc(Cl)c3)c2n1 [IV-96]
10 to 20,> 60,,,Cc1cc(C)n2ccc(C(=O)N[C@H](C)c3cccc4c3CCCC4)c2n1 [IV-95]
< 10,< 30,,,Cc1cc(C)n2ccc(C(=O)NC(CO)c3ccc(C(C)C)cc3)c2n1 (stereo not shown) [IV-93]
< 10,< 30,,,CCn1c(C(C)NC(=O)c2ccn3c(C)cc(C)nc23)nc2c1CCCC2 (stereo not shown) [IV-106]
< 10,< 30,,,Cc1ccc(C(CO)NC(=O)c2ccn3c(C)cc(C)nc23)c(C)c1 (stereo not shown) [IV-91]
